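Tested at 5 concentrations; 48 h exposure; 96-well plates; endpoints linearly interpolated, else capped at highest concentration. The concentration for 50% growth inhibition is given as GI50. TGI denotes the concentration required for complete inhibition of growth.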
Key:
Assay in all cases: NCI-60 cell line screen, 48 h
SK-MEL-2 melanoma = system: SK-MEL-2 melanoma
SF-268 CNS = system: SF-268 CNS
K-562 leukemia = system: K-562 leukemia
DU-145 prostate = system: DU-145 prostate
KM12 colon = system: KM12 colon
TK-10 renal = system: TK-10 renal
HOP-62 NSCLC = system: HOP-62 NSCLC
U251 CNS = system: U251 CNS
A498 renal = system: A498 renal
SN12C renal = system: SN12C renal
OVCAR-4 ovarian = system: OVCAR-4 ovarian
MDA-MB-435 = system: MDA-MB-435
HS 578T breast = system: HS 578T breast
M14 melanoma = system: M14 melanoma
PC-3 prostate = system: PC-3 prostate
SK-OV-3 ovarian = system: SK-OV-3 ovarian
UACC-62 melanoma = system: UACC-62 melanoma
MOLT-4 leukemia = system: MOLT-4 leukemia
SNB-19 CNS = system: SNB-19 CNS
A549 NSCLC = system: A549 NSCLC
MALME-3M melanoma = system: MALME-3M melanoma
EKVX NSCLC = system: EKVX NSCLC
OVCAR-8 ovarian = system: OVCAR-8 ovarian
SW-620 colon = system: SW-620 colon
CCRF-CEM leukemia = system: CCRF-CEM leukemia
HCC-2998 colon = system: HCC-2998 colon
SK-MEL-28 melanoma = system: SK-MEL-28 melanoma
IGROV1 ovarian = system: IGROV1 ovarian
UACC-257 melanoma = system: UACC-257 melanoma
CAKI-1 renal = system: CAKI-1 renal
OVCAR-5 ovarian = system: OVCAR-5 ovarian
HL-60(TB) leukemia = system: HL-60(TB) leukemia
NCI-H460 lung = system: NCI-H460 lung
NCI/ADR-RES ovarian = system: NCI/ADR-RES ovarian
MDA-MB-231 breast = system: MDA-MB-231 breast
SNB-75 CNS = system: SNB-75 CNS
SF-539 CNS = system: SF-539 CNS
BT-549 breast = system: BT-549 breast
SR leukemia = system: SR leukemia
NCI-H23 lung = system: NCI-H23 lung
COLO 205 colon = system: COLO 205 colon
RPMI-8226 leukemia = system: RPMI-8226 leukemia
T-47D breast = system: T-47D breast
OVCAR-3 ovarian = system: OVCAR-3 ovarian
SK-MEL-5 melanoma = system: SK-MEL-5 melanoma
HCT-15 colon = system: HCT-15 colon
UO-31 renal = system: UO-31 renal
MCF7 breast = system: MCF7 breast
SF-295 CNS = system: SF-295 CNS
HT29 colon = system: HT29 colon
786-0 renal = system: 786-0 renal
NCI-H522 lung = system: NCI-H522 lung
ACHN renal = system: ACHN renal

COc1cc2c(cc1OCCCCCOc1cc3c(cc1OC)C(=O)N1CC(F)C[C@H]1C=N3)N=C[C@@H]1CC(F)CN1C2=O (stereo partly drawn)
GI50 (SK-MEL-2 melanoma): 279 nM
GI50 (SF-268 CNS): < 10 nM
TGI (SF-268 CNS): 1190 nM
GI50 (K-562 leukemia): 32.5 nM
TGI (K-562 leukemia): 1940 nM
GI50 (DU-145 prostate): 97 nM
TGI (DU-145 prostate): 2670 nM
GI50 (KM12 colon): 369 nM
TGI (KM12 colon): 1150 nM
GI50 (TK-10 renal): 1980 nM
TGI (TK-10 renal): 6320 nM
GI50 (HOP-62 NSCLC): < 10 nM
TGI (HOP-62 NSCLC): 222 nM
GI50 (U251 CNS): 13.5 nM
TGI (U251 CNS): 235 nM
GI50 (A498 renal): 86.3 nM
TGI (A498 renal): 217 nM
GI50 (SN12C renal): < 42.7 nM
TGI (SN12C renal): 952 nM
GI50 (OVCAR-4 ovarian): 1290 nM
TGI (OVCAR-4 ovarian): 24100 nM
GI50 (MDA-MB-435): 169 nM
TGI (MDA-MB-435): 761 nM
GI50 (HS 578T breast): 58.1 nM
TGI (HS 578T breast): 246 nM
GI50 (M14 melanoma): 27.5 nM
TGI (M14 melanoma): 272 nM
GI50 (PC-3 prostate): 295 nM
TGI (PC-3 prostate): 1490 nM
GI50 (SK-OV-3 ovarian): 327 nM
TGI (SK-OV-3 ovarian): 46500 nM
GI50 (UACC-62 melanoma): 51.1 nM
TGI (UACC-62 melanoma): 224 nM
GI50 (MOLT-4 leukemia): < 10 nM
TGI (MOLT-4 leukemia): 66.3 nM
GI50 (SNB-19 CNS): 376 nM
TGI (SNB-19 CNS): > 100000 nM
GI50 (A549 NSCLC): 158 nM
TGI (A549 NSCLC): 2870 nM
GI50 (MALME-3M melanoma): 124 nM
TGI (MALME-3M melanoma): 733 nM
GI50 (EKVX NSCLC): 1100 nM
TGI (EKVX NSCLC): 7780 nM
GI50 (OVCAR-8 ovarian): 138 nM
TGI (OVCAR-8 ovarian): 2060 nM
GI50 (SW-620 colon): 70.1 nM
TGI (SW-620 colon): 452 nM
GI50 (CCRF-CEM leukemia): < 10 nM
TGI (CCRF-CEM leukemia): 71.3 nM
GI50 (HCC-2998 colon): 229 nM
TGI (HCC-2998 colon): 2890 nM
GI50 (SK-MEL-28 melanoma): 424 nM
TGI (SK-MEL-28 melanoma): 8450 nM
GI50 (IGROV1 ovarian): 59.9 nM
GI50 (UACC-257 melanoma): 165 nM
TGI (UACC-257 melanoma): 444 nM
GI50 (CAKI-1 renal): < 10 nM
TGI (CAKI-1 renal): 411 nM
GI50 (OVCAR-5 ovarian): 117 nM
TGI (OVCAR-5 ovarian): 3250 nM
GI50 (HL-60(TB) leukemia): < 10 nM
TGI (HL-60(TB) leukemia): 2390 nM
GI50 (NCI-H460 lung): < 10 nM
TGI (NCI-H460 lung): 143 nM
GI50 (NCI/ADR-RES ovarian): 553 nM
TGI (NCI/ADR-RES ovarian): 9870 nM
GI50 (MDA-MB-231 breast): 245 nM
TGI (MDA-MB-231 breast): 550 nM
GI50 (SNB-75 CNS): 48.8 nM
TGI (SNB-75 CNS): > 100000 nM
GI50 (SF-539 CNS): 16.1 nM
TGI (SF-539 CNS): 458 nM
GI50 (BT-549 breast): 93.9 nM
TGI (BT-549 breast): 721 nM
GI50 (SR leukemia): < 10 nM
GI50 (NCI-H23 lung): < 37.3 nM
TGI (NCI-H23 lung): 394 nM
GI50 (COLO 205 colon): 191 nM
TGI (COLO 205 colon): 465 nM
GI50 (RPMI-8226 leukemia): < 15.1 nM
TGI (RPMI-8226 leukemia): 62.2 nM
GI50 (T-47D breast): 265 nM
TGI (T-47D breast): 14000 nM
GI50 (OVCAR-3 ovarian): 128 nM
TGI (OVCAR-3 ovarian): 510 nM
GI50 (SK-MEL-5 melanoma): 51.1 nM
TGI (SK-MEL-5 melanoma): 127 nM
GI50 (HCT-15 colon): 1110 nM
TGI (HCT-15 colon): 3720 nM
GI50 (UO-31 renal): 315 nM
TGI (UO-31 renal): 4640 nM
GI50 (MCF7 breast): < 10.8 nM
TGI (MCF7 breast): 1310 nM
GI50 (SF-295 CNS): < 14.8 nM
TGI (SF-295 CNS): 694 nM
GI50 (HT29 colon): 246 nM
TGI (HT29 colon): > 58600 nM
GI50 (786-0 renal): < 10 nM
TGI (786-0 renal): 160 nM
GI50 (NCI-H522 lung): 37.2 nM
TGI (NCI-H522 lung): 204 nM
GI50 (ACHN renal): < 16.9 nM
TGI (ACHN renal): 167 nM
